Experimental data reported in PMC8025548 (Carbohydrate Polymers, 2021).
In brackets after ≈: the same amount, converted by molar mass. Read-outs that look alike come from different tables or passages of the source.

Key:
[1] = SBECD-assisted equilibrium solubilization of REM, assayed by HPLC; assay type: physicochemical; conditions: for solubility at 24 h: pH 1.9
[2] = ref Larson, 2019, cited from earlier work

**Q.** What does the source list for CCC(CC)COC(=O)[C@H](C)N[P@](=O)(OC[C@H]1O[C@@](C#N)(c2ccc3c(N)ncnn23)[C@H](O)[C@@H]1O)Oc1ccccc1 [REM, Remdesivir]?
**A.** solubility at 24 h ([1]; 20 % (w/w) aqueous SBECD solution): 7600 to 9700 µg/mL (≈ 12.6 to 16.1 mM); solubility at 24 h ([1]; 20 % aqueous SBECD solution): 8400 µg/mL (≈ 13.9 mM); improvement of the aqueous solubility of REM ([1]; with solubilizing carbohydrate (SBECD)): 300 fold; dissolved REM ([2]; 20 % (w/w) aqueous solution of PEG-400): 3.3 mg/mL; dissolved REM ([2]; 20 % (w/w) aqueous solution of SBECD): 8.5 mg/mL; dissolved REM ([2]; 20 % (w/w) aqueous solution of Tween-80): 3.9 mg/mL
